Data reported in patent US20080300231A1, “Antibacterial amide macrocycles VI” (priority 2005, published 2008).
Converted amounts (≈) assume the structure as drawn.

Experiments:
Assay type in all cases: cell-based
S. aureus RN4220Bi^R = assay: MIC against biphenomycin-resistant S. aureus strain RN4220Bi^R; conditions: colony selected as strain RN4220Bi^R
Description: The S. aureus strain RN4220Bi^R is isolated in vitro. […] Whereas about 1×10^7 cells grow on the antibiotic-free plate, about 100 colonies grow on the antibiotic-containing plate, corresponding to a resistance rate of 1×10^5. Some of the colonies grown on the antibiotic-containing plate are tested for the biphenomycin B MIC. One colony with a MIC of >50 μM is selected for further use, and the strain is referred to as RN4220Bi^R.

S. aureus T17 = assay: Minimum inhibitory concentration (MIC), biphenomycin-resistant S. aureus T17
Description: (§1) Determination of the Minimum Inhibitory Concentration (MIC)
(§2) The minimum inhibitory concentration (MIC) is the minimum concentration of an antibiotic with which the growth of a test microbe is inhibited over 18-24 h. The inhibitor concentration can in these cases be determined by standard microbiological methods (see, for example, The National Committee for Clinical Laboratory Standards. Methods for dilution antimicrobial susceptibility tests for bacteria that grow aerobically; approved standard-fifth edition. NCCLS document M7-A5 [ISBN 1-56238-394-9]. NCCLS, 940 West Valley Road, Suite 1400, Wayne, Pa. 19087-1898 USA, 2000). The MIC of the compounds of the invention is determined in the liquid dilution test on the 96-well microtitre plate scale. The bacterial microbes are cultivated in a minimal medium (18.5 mM Na2HPO4, 5.7 mM KH2PO4, 9.3 mM NH4Cl, 2.8 mM MgSO4, 17.1 mM NaCl, 0.033 μg/ml of thiamine hydrochloride, 1.2 μg/ml of nicotinic acid, 0.003 μg/ml of biotin, 1% glucose, 25 μg/ml of each proteinogenic amino acid with the exception of phenylalanine; [H.-P. Kroll; unpublished]) with addition of 0.4% BH broth (test medium). In the case of Enterococcus faecium L4001, heat-inactivated fetal calf serum (FCS; GibcoBRL, Germany) is added to the test medium in a final concentration of 10%. Overnight cultures of the test microbes are diluted to an OD578 of 0.001 (to 0.01 in the case of enterococci) in fresh test medium, and incubated 1:1 with dilutions of the test substances (1:2 dilution steps) in test medium (200 μl final volume). The cultures are incubated at 37° C. for 18-24 hours; enterococci in the presence of 5% CO2
(§3) The lowest substance concentration in each case at which no visible bacterial growth occurs any more is defined as the MIC.
(§4) Alternative Method for Determining the Minimum Inhibitory Concentration (MIC)
(§5) The minimum inhibitory concentration (MIC) is the minimum concentration of an antibiotic with which the growth of a test microbe is inhibited over 18-24 h. The inhibitor concentration can in these cases be determined by standard microbiological methods with modified medium in an agar dilution test (see, for example, The National Committee for Clinical Laboratory Standards. Methods for dilution antimicrobial susceptibility tests for bacteria that grow aerobically; approved standard-fifth edition. NCCLS document M7-A5 [ISBN 1-56238-394-9]. NCCLS, 940 West Valley Road, Suite 1400, Wayne, Pa. 19087-1898 USA, 2000). The bacterial microbes are cultivated on 1.5% agar plates which contain 20% defibrinated horse blood. The test microbes, which are incubated overnight on Columbia blood agar plates (Becton-Dickinson), are diluted in PBS, adjusted to a microbe count of about 5×10^5 microbes/ml and placed dropwise (1-3 μl) on test plates. The test substances comprise different dilutions of the test substances (1:2 dilution steps). The cultures are incubated at 37° C. in the presence of 5% CO2 for 18-24 hours.
(§6) The lowest substance concentration in each case at which no visible bacterial growth occurred any more is defined as the MIC and is reported in μg/ml.
The S. aureus strain T17 is isolated in vivo. CFW1 mice are infected intraperitoneally with 4×10^7 S. aureus 133 cells per mouse. 0.5 h after the infection, the animals are treated intravenously with 50 mg/kg biphenomycin B. The kidneys are removed from the surviving animals on day 3 after the infection. After homogenization of the organs, the homogenates are plated out as described for RN4220Bi^R on antibiotic-free and antibiotic-containing agar plates and incubated at 37° C. overnight. […] About 20 of these colonies are tested for the biphenomycin B MIC, and a colony with a MIC of >50 μM is selected for further cultivation, and the strain is referred to as T17.

[1] = test system: Enterococcus faecium L4001; assay: Minimum inhibitory concentration (MIC), E. faecium L4001; conditions: E. faecium L4001; test medium with 10% FCS
Description: as §1, §2, §3, §4, §5, §6

SMILES: NC[C@H](O)C[C@@H]1NC(=O)[C@@H](N)Cc2cc(ccc2O)-c2ccc(O)c(c2)C[C@@H](C(=O)O)NC1=O [Biphenomycin B, biphenomycin B, reference compound]
- MIC (S. aureus RN4220Bi^R): > 50 µM
- MIC S. aureus T17 (S. aureus T17; biphenomycin-resistant S. aureus T17): >32 µg/mL
- MIC (S. aureus T17; colony from kidney selected as strain T17): > 50 µM
- MIC E. faecium L4001 [1]: 0.5 µg/mL (≈ 1.06 µM)
